Laboratory results reported in patent EP2439195B1, “NAPHTHALENE CARBOXAMIDE DERIVATIVES AS INHIBITORS OF PROTEIN KINASE AND HISTONE DEACETYLASE, PREPARATION METHODS AND USES THEREOF” (Shenzhen Chipscreen Biosciences, Ltd., priority 2009, dated 2010).
Read-outs that look alike come from different tables or passages of the source.

How the values were obtained:
[1] = test system: MCF-7; experiment: Tumor cell proliferation (MTS), MCF-7; assay type: cell-based; details: Homo sapiens, MCF7; MCF-7, 72 hours; read-out: Gl50 µM in MCF-7
Protocol: (§1) Tumor cells were trypsinized and plated into 96-well plates at 3,000 per well and incubated in complete medium with 10% FBS for 24 hours. Compounds to be tested and vehicle control were added, and the final concentration of compound is in the range of 100 nmol/L to 100 µmol/L. The compounds were incubated for 72 hours in complete medium. The MTS reagent (Promega) was added according to the instruction, incubated for 2 hours at 37°C in CO2 incubator. Then absorbance at 490nm is read using an ELISA plate reader.

[2] = test system: A-498; experiment: Tumor cell proliferation (MTS), A-498; assay type: cell-based; details: Homo sapiens, A498; A-498, 72 hours; read-out: Gl50 µM in A-498
Protocol: as §1

[3] = test system: A549; experiment: Tumor cell proliferation (MTS), A549; assay type: cell-based; details: Homo sapiens; A549, 72 hours; read-out: Gl50 µM in A549
Protocol: as §1

[4] = test system: Bel-7402; experiment: Tumor cell proliferation (MTS), Bel-7402; assay type: cell-based; details: Homo sapiens; Bel-7402, 72 hours; read-out: Gl50 µM in Bel-7402
Protocol: as §1

[5] = test system: HCT-8; experiment: Tumor cell proliferation (MTS), HCT-8; assay type: cell-based; details: Homo sapiens; HCT-8, 72 hours; read-out: Gl50 µM in HCT-8
Protocol: as §1

[6] = test system: Class I HDAC; experiment: HDAC subtype selectivity reporter gene assay (P21 reporter, HeLa cells); assay type: cell-based; details: Homo sapiens, read-out: Class I HDAC (P21 reporter assay) Fold Induction at 10µM
Protocol: Different HDAC subtypes can bind with different transcriptional factors and involve in expression regulation of various genes. Suitable regulation elements for transcriptional factors are selected to construct reporter genes, which can be used to evaluate the selective inhibition of inhibors on HDAC subtypes. Briefly, HeLa cells were seeded in 96-well plates the day before transfection to give a confluence of 50-80% when transfection. Cells were transfected with one of reporter gene plasmid containing a p21-promoter sequence or response element upstream of a luciferase gene construct using FuGene6 transfection reagent according to the manufacturer's instruction (Roche). For normalizing the transfection efficiency, a GFP expression plasmid was cotransfected. After 24 hours compounds or the vehicle control (DMSO) were added. 24 hours later the cells were harvested and lysed, and the amount of the luciferase was evaluated using luciferase assay kits (Promega) according to the manufacturer's instructions.

[7] = test system: HUVEC cells; experiment: VEGF dependent cell proliferation (MTS); assay type: cell-based; details: Homo sapiens, VEGF 165 (50ng/ml), 72 hours, serum-free medium, read-out: Gl50 nM (VEGF ligand-dependent cell proliferation)
Protocol: HUVEC cells were plated into 96-well plates at 6,000 per well and after 24 hours incubated with serum-free medium for 2 hours. Compounds to be tested and VEGF 165 (50ng/ml) were added and incubated for 72 hours in serum-free medium. The effects on cell proliferation were determined by MTS method (Promega) according to the instruction. Incubation was performed for 2 hours at 37°C in CO2 incubator, and absorbance at 490nm was determined using an ELISA plate reader.

[8] = biological target: T1, human PDGFRβ (Homo sapiens, UniProt P09619); experiment: PDGF dependent cell proliferation (MTS); assay type: cell-based
T1 construct: expressed in transfected cells
Protocol: NIH-3T3 mouse fibroblasts cell line engineered to stably express human PDGFRβ was constructed and used to evaluate PDGF dependent cell proliferation. PDGFRβ NIH-3T3 cells were plated into 96-well plates at 5,000 per well and incubated overnight with serum-free medium after 24 hours. Compounds to be tested and PDGF BB (50ng/ml) were added and incubated for 72 hours in serum-free medium. The effects on proliferation were determined by MTS method (Promega) according to the instruction. Incubation was performed for 2 hours at 37°C in CO2 incubator, and absorbance at 490nm was measured using an ELISA plate reader.

[9] = test system: total HDAC enzyme; experiment: In vitro total HDAC enzyme activity (HDAC Fluorimetric Assay/Drug Discovery Kit, HeLa cell nuclear extract); assay type: biochemical
Protocol: The in vitro total HDAC enzyme activity was determined by HDAC Fluorimetric Assay/Drug Discovery Kit (BIOMOL) according to manufacture's instruction. The principle of the experiment is as follows: under the action of histone deacetylase (in the experiment, HeLa cell nuclear extract, which was rich in a variety of subtypes of HDAC, was used), an acetyl group is removed from a special substrate Fluor de Lys, thus the free amino is exposed. Upon Developer is added, the substrate will produce fluorescence. For the fluorescence, excitation wavelength is 360nm, and emission wavelength is 460nm. More fully the substrate deacetylated, more higher the fluorescence induced. In the absence of inhibitors, the fluorescence value is taken as the control; when inhibitor is existed, fluorescence value induced will be reduced, while in the case no enzyme is existed (corresponding to the completely inhibition of enzyme activity) the fluorescence value is blank. Generally, after suppression the fluorescence values will be between the control and blank. When analysis is made, blank will be used as 0, and the control will be used as 1. Smaller value means higher inhibitory activity. 1. Add Assay buffer, diluted trichostatin A and test inhibitor to appropriate wells of the microtiter plate. Following table lists the amounts used for each regent of various assay types.
2. Add diluted HeLa nucleoprotein extract to all wells except those that are marked as "blank". 3. Allow diluted Fluor de Lys™ Substrate and the samples in the microtiter plate to equilibrate to 25°C. 4. Initiate HDAC reactions by adding diluted substrate (25 µl) to each well and mixing thoroughly. 5. Allow reactions to proceed for 30 minutes and then stop them by addition of Fluor de Lys™ Developer (50 µl). Incubate plate at room temperature (25°C) for 10-15 min. 6. Read fluorescence of samples on a microtiter-plate reading fluorimeter at a excitation wavelength of 369 nm and a emitted wavelength of 451 nm.

[10] = PDGFRβ NIH-3T3 cells, PDGF BB (50ng/ml), 72 hours, serum-free medium; read-out: Gl50 nM (PDGF ligand-dependent cell proliferation)

T1 sequence (P09619 33-1106): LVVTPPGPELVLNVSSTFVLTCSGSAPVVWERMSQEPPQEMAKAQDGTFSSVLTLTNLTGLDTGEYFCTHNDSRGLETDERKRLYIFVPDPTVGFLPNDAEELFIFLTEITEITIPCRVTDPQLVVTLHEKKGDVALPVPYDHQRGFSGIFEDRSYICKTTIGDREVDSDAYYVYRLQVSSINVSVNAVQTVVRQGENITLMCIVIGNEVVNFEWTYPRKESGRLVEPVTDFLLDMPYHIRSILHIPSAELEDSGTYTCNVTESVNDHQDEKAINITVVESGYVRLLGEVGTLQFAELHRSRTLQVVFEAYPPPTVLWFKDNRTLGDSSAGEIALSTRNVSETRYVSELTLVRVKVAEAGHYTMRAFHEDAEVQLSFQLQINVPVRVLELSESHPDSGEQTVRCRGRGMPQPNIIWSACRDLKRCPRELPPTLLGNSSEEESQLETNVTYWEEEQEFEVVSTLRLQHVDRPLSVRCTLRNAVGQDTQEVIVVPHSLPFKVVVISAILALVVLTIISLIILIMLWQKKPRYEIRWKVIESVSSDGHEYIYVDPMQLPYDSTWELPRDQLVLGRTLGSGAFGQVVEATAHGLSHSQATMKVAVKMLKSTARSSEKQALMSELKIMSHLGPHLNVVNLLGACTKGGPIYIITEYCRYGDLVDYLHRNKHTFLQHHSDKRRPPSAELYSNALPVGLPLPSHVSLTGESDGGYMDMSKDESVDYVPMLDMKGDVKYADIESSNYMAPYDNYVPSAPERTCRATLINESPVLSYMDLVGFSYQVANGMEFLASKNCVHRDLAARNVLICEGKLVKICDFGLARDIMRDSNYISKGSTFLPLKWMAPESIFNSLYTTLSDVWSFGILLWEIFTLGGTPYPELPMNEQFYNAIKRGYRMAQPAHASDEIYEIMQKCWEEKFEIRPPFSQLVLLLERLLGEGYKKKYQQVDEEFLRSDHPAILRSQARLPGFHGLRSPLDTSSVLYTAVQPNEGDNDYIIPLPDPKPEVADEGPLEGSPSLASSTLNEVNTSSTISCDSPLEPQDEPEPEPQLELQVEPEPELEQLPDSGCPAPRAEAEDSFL

Work on `Nc1cc(F)ccc1NC(=O)c1ccc(CNC(=O)/C=C/c2cccnc2)cc1` [CS055, Chidamide, reference compound] yielded an IC50 [1] of 3.87 µM, an IC50 [2] of 12.1 µM and an IC50 [3] of 11.2 µM. For the same molecule, the IC50 [4] was 18.9 µM, the IC50 [5] was 7.71 µM and the fold induction at 10 µM ([6]; 10µM, HeLa cells, 24 hours) was 33.
`COc1cc2ncnc(Oc3ccc4c(C(=O)Nc5ccccc5N)cccc4c3)c2cc1OC` [Compound 16, N-(2-aminophenyl)-6-(6,7-dimethoxyquinazolin-4-yloxy)-1-naphthamide] showed an IC50 [1] of 30 µM, an IC50 [2] of 30 µM and an IC50 [7] of 3 nM. The IC50 [3] was 30 µM, the IC50 [8, 10] was 48 nM and the IC50 [4] was 30 µM. The “% inhibition of total HDAC enzyme activity at 30µM” value (from here on “% inhibition”) [9] was 8.6%, the IC50 [5] was 12.3 µM and the fold induction at 10 µM ([6]; 10µM, HeLa cells, 24 hours) was 1.3.
For `COc1cc2ncnc(Oc3ccc4c(C(=O)Nc5ccc(F)cc5N)cccc4c3)c2cc1OC` [Compound 17, N-(2-amino-4-fluorophenyl)-6-(6,7-dimethoxyquinazolin-4-yloxy)-1-naphthamide], the IC50 [1] was 30 µM, the IC50 [2] was 30 µM and the IC50 [7] was 3 nM. The IC50 [3] was 30 µM, the IC50 [8, 10] was 40 nM and the IC50 [4] was 30 µM. The “% inhibition” value [9] was 22.5%, the IC50 [5] was 3 µM and the fold induction at 10 µM ([6]; 10µM, HeLa cells, 24 hours) was 1.1.
`COc1cc2ncnc(Oc3ccc4c(C(=O)Nc5ccc(C)cc5N)cccc4c3)c2cc1OC` [Compound 18, N-(2-amino-4-methylphenyl)-6-(6,7-dimethoxyquinazolin-4-yloxy)-1-naphthamide] was tested, and the IC50 [7] was 7 nM, the IC50 [8, 10] was 15 nM and the “% inhibition” value [9] was 17.1%. It also gave a fold induction at 10 µM ([6]; 10µM, HeLa cells, 24 hours) of 1.1.
In the case of `COc1ccc(NC(=O)c2cccc3cc(Oc4ncnc5cc(OC)c(OC)cc45)ccc23)c(N)c1` [Compound 19, N-(2-amino-4-methoxyphenyl)-6-(6,7-dimethoxyquinazolin-4-yloxy)-1-naphthamide], the IC50 [7] is reported as 23 nM, the IC50 [8, 10] is reported as 11 nM and the “% inhibition” value [9] is reported as 21.9%. It also gave a fold induction at 10 µM ([6]; 10µM, HeLa cells, 24 hours) of 1.4.
With `COc1cc2ncnc(Oc3ccc4c(C(=O)Nc5ccc(Cl)cc5N)cccc4c3)c2cc1OC` [Compound 20, N-(2-amino-4-chlorophenyl)-6-(6,7-dimethoxyquinazolin-4-yloxy)-1-naphthamide] the IC50 [7] was 6 nM, the IC50 [8, 10] was 23 nM and the “% inhibition” value [9] was 21.9%. It also gave a fold induction at 10 µM ([6]; 10µM, HeLa cells, 24 hours) of 1.5.
In the case of `COc1cc2ncnc(Oc3ccc4c(C(=O)Nc5ccc(Br)cc5N)cccc4c3)c2cc1OC` [Compound 21, N-(2-amino-4-bromophenyl)-6-(6,7-dimethoxyquinazolin-4-yloxy)-1-naphthamide], the IC50 [7] is reported as 5 nM, the IC50 [8, 10] is reported as 19 nM and the “% inhibition” value [9] is reported as 18.6%. For the same molecule, the fold induction at 10 µM ([6]; 10µM, HeLa cells, 24 hours) was 1.1.
In the case of `COc1cc2ncnc(Oc3ccc4c(C(=O)Nc5ccc(C(F)(F)F)cc5N)cccc4c3)c2cc1OC` [Compound 22, N-(2-amino-4-trifluoromethylphenyl)-6-(6,7-dimethoxyquinazolin-4-yloxy)-1-naphthamide], the IC50 [7] is reported as 3 nM, the IC50 [8, 10] is reported as 372 nM and the “% inhibition” value [9] is reported as 17%. It also gave a fold induction at 10 µM ([6]; 10µM, HeLa cells, 24 hours) of 1.1.
Molecule `COc1cc2ncnc(Oc3ccc4c(C(=O)NCc5ccc(C(=O)Nc6ccccc6N)cc5)cccc4c3)c2cc1OC` [Compound 23, N-(4-((2-aminophenyl)carbamoyl)benzyl)-6-(6,7-dimethoxyquinazolin-4-yloxy)-1-naphthamide] has an IC50 [1] of 4.3 µM, an IC50 [2] of 14.7 µM and an IC50 [7] of 18 nM. The IC50 [3] was 30 µM, the IC50 [8, 10] was 148 nM and the IC50 [4] was 30 µM. The “% inhibition” value [9] was 49.4%, the IC50 [5] was 5.7 µM and the fold induction at 10 µM ([6]; 10µM, HeLa cells, 24 hours) was 11.3.
`COc1cc2ncnc(Oc3ccc4c(C(=O)NCc5ccc(C(=O)Nc6ccccc6N)cn5)cccc4c3)c2cc1OC` [Compound 25] gave an IC50 [1] of 6.1 µM, an IC50 [2] of 14.7 µM and an IC50 [7] of 13 nM. The IC50 [3] was 30 µM, the IC50 ([8]; read-out: Gl50 nM (PDGF ligand-dependent cell proliferation); PDGFRβ NIH-3T3 cells, PDGF BB (50ng/ml), 72 hours, serum-free medium) was 69 nM and the IC50 [4] was 30 µM. The “% inhibition” value [9] was 47.9%, the IC50 [5] was 4.9 µM and the fold induction at 10 µM ([6]; HeLa, 24 h) was 12.1.
`Nc1ccccc1NC(=O)c1cccc2cc(Oc3ccnc4ccccc34)ccc12` [Compound 39, N-(2-aminophenyl)-6-(quinolin-4-yloxy)-1-naphthamide] was tested, and the IC50 [7] was 107 nM, the IC50 [8, 10] was 32 nM and the “% inhibition” value [9] was 15.9%. The fold induction at 10 µM ([6]; 10µM, HeLa cells, 24 hours) was 1.2.
In the case of `Cc1cccc2c(Oc3ccc4c(C(=O)Nc5ccccc5N)cccc4c3)ccnc12` [Compound 40, N-(2-aminophenyl)-6-(8-methylquinolin-4-yloxy)-1-naphthamide], the IC50 [7] is reported as 1000 nM, the “% inhibition” value [9] is reported as 22.2% and the fold induction at 10 µM ([6]; 10µM, HeLa cells, 24 hours) is reported as 1.3.
With `Nc1ccccc1NC(=O)c1cccc2cc(Oc3ccnc4cc(Cl)ccc34)ccc12` [Compound 41, N-(2-aminophenyl)-6-(7-chloroquinolin-4-yloxy)-1-naphthamide] the IC50 [7] was 105 nM, the IC50 [8, 10] was 479 nM and the “% inhibition” value [9] was 19.3%. The fold induction at 10 µM ([6]; 10µM, HeLa cells, 24 hours) was 1.1.
For `Nc1ccccc1NC(=O)c1cccc2cc(Oc3ccnc4c(C(F)(F)F)cccc34)ccc12` [Compound 42, N-(2-aminophenyl)-6-(8-trifluoromethylquinolin-4-yloxy)-1-naphthamide], the IC50 [7] was 1000 nM, the IC50 [8, 10] was 48 nM and the “% inhibition” value [9] was 6.2%. For the same molecule, the fold induction at 10 µM ([6]; 10µM, HeLa cells, 24 hours) was 1.3.
`Nc1ccccc1NC(=O)c1ccc(CNC(=O)c2cccc3cc(Oc4ccnc5cc(Cl)ccc45)ccc23)cc1` [Compound 43, N-(4-((2-aminophenyl)carbamoyl)benzyl)-6-(7-chloroquinolin-4-yloxy)-1-naphthamide] was tested, and the IC50 [7] was 288 nM, the “% inhibition” value [9] was 38.7% and the fold induction at 10 µM ([6]; 10µM, HeLa cells, 24 hours) was 6.1.
For `Nc1ccccc1NC(=O)c1ccc(CNC(=O)c2cccc3cc(Oc4ccnc5c(C(F)(F)F)cccc45)ccc23)cc1` [Compound 44], the IC50 [7] was 1000 nM, the “% inhibition” value [9] was 35.1% and the fold induction at 10 µM ([6]; 10µM, HeLa cells, 24 hours) was 3.2.
